Assays:
[1] = tested on: Pseudomonas aeruginosa UI-18: Wild-type (PA-7); assay: MIC determination (CLSI), strain PA-7; format: cell-based; details: strain PA-7, unit assumed
Method in brief: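 MIC determined by broth dilution per CLSI M7-A7 guidelines with M100-S18 interpretive standards. Test organism: wild-type Pseudomonas aeruginosa UI-18, designated PA-7.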

[2] = tested on: Escherichia coli EC-1: VOGEL, mouse virulent; assay: MIC determination (CLSI), strain EC-1; format: cell-based; details: strain EC-1, unit assumed
Method in brief: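 The mouse-virulent VOGEL isolate of E. coli, EC-1, served as test organism. Minimum inhibitory concentration was measured by CLSI dilution methodology (M7-A7; M100-S18 standards).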

[3] = generated in the same manner as in Table 4

Structure (SMILES)	PA-7 (MIC) [1, 3] [µg/mL]	EC-1 (MIC) [2, 3] [µg/mL]	PA-7 (MIC) [1] [µg/mL]	EC-1 (MIC) [2] [µg/mL]
CC(CCn1ccc(-c2ccc(OCCN3CCOCC3)cc2)cc1=O)(C(=O)NO)S(C)(=O)=O (centres unmarked) [Example 94]	4	2		
CC(CCn1ccc(-c2cccc3cccnc23)cc1=O)(C(=O)NO)S(C)(=O)=O (centres unmarked) [Example 189, N-hydroxy-2-methyl-2-(methylsulfonyl)-4-(2-oxo-4-quinolin-8-ylpyridin-1(2H)-yl)butanamide]			64	> 64
COc1cc(-c2ccn(CCC(C)(C(=O)NO)S(C)(=O)=O)c(=O)c2)ccc1OCCCO (centres unmarked) [Example 249, N-hydroxy-4-{4-[4-(3-hydroxypropoxy)-3-methoxyphenyl]-2-oxopyridin-1(2H)-yl}-2-methyl-2-(methylsulfonyl)butanamide]			64	> 64
COc1cccc(-c2ccn(CC[C@](C)(C(=O)NO)S(C)(=O)=O)c(=O)c2)c1C [Example 468]			2	2
C[C@@](CCn1ccc(-c2ccc(-c3cnsc3)cc2)cc1=O)(C(=O)NO)S(C)(=O)=O [Example 380, (2R)-N-hydroxy-4-[4-(4-isothiazol-4-ylphenyl)-2-oxopyridin-1(2H)-yl]-2-methyl-2-(methylsulfonyl)butanamide]			1	0.5
C[C@@](CCn1ccc(-c2ccc(Oc3ncccc3C#N)cc2)cc1=O)(C(=O)NO)S(C)(=O)=O [Example 427, (2R)-4-[4-{4-[(3-cyanopyridin-2-yl)oxy]phenyl}-2-oxopyridin-1(2H)-yl]-N-hydroxy-2-methyl-2-(methylsulfonyl)butanamide]			2	2
Cc1cccc(-c2ccn(CCC(C)(C(=O)NO)S(C)(=O)=O)c(=O)c2)c1C (centres unmarked) [Example 257, 4-[4-(2,3-dimethylphenyl)-2-oxopyridin-1(2H)-yl]-N-hydroxy-2-methyl-2-(methylsulfonyl)butanamide]			2	4
CCN(CC)C(=O)c1ccc(-c2ccn(CCC(C)(C(=O)NO)S(C)(=O)=O)c(=O)c2)cc1 (centres unmarked) [Example 126, N,N-diethyl-4-{1-[4-(hydroxyamino)-3-methyl-3-(methylsulfonyl)-4-oxobutyl]-2-oxo-1,2-dihydropyridin-4-yl}benzamide]	> 64	> 64		
CC(=O)c1ccc(-c2ccn(CC[C@](C)(C(=O)NO)S(C)(=O)=O)c(=O)c2)c(F)c1 [Example 320]			2	1
Cc1cc(-c2cc(CO)no2)ccc1-c1ccn(CCC(C)(C(=O)NO)S(C)(=O)=O)c(=O)c1 (centres unmarked) [Example 286]			16	16
CC(CCn1ccc(-c2ccc(OCCCN3CCOCC3)cc2F)cc1=O)(C(=O)NO)S(C)(=O)=O (centres unmarked) [Example 226, 4-{4-[2-fluoro-4-(3-morpholin-4-ylpropoxy)phenyl]-2-oxopyridin-1(2H)-yl}-N-hydroxy-2-methyl-2-(methylsulfonyl)butanamide]			8	2
COc1cccc(-c2ccn(CCC(C)(C(=O)NO)S(C)(=O)=O)c(=O)c2)c1 (centres unmarked) [Example 206, N-hydroxy-4-[4-(3-methoxyphenyl)-2-oxopyridin-1(2H)-yl]-2-methyl-2-(methylsulfonyl)butanamide]			4	4
CC(CCn1ccc(-c2ccc(OCC3CCCCC3)nc2)cc1=O)(C(=O)NO)S(C)(=O)=O (centres unmarked) [Example 181, 4-[6-(cyclohexylmethoxy)-2′-oxo-3,4′-bipyridin-1′(2′H)-yl]-N-hydroxy-2-methyl-2-(methylsulfonyl)butanamide]	4	0.125		
CC(CCn1ccc(-c2cccc(OCCCO)c2F)cc1=O)(C(=O)NO)S(C)(=O)=O (centres unmarked) [Example 307, 4-{4-[2-fluoro-3-(3-hydroxypropoxy)phenyl]-2-oxopyridin-1(2H)-yl}-N-hydroxy-2-methyl-2-(methylsulfonyl)butanamide]			16	16
Cc1cc(-c2ccc(-c3ccn(CC[C@](C)(C(=O)NO)S(C)(=O)=O)c(=O)c3)cc2)no1 [Example 370, (2R)-N-hydroxy-2-methyl-4-{4-[4-(5-methylisoxazol-3-yl)phenyl]-2-oxopyridin-1(2H)-yl}-2-(methylsulfonyl)butanamide]			0.5	0.125
Cn1ccnc1-c1cccc(-c2ccn(CCC(C)(C(=O)NO)S(C)(=O)=O)c(=O)c2)c1 (centres unmarked) [Example 172, N-hydroxy-2-methyl-4-{4-[3-(1-methyl-1H-imidazol-2-yl)phenyl]-2-oxopyridin-1(2H)-yl}-2-(methylsulfonyl)butanamide]	> 64	> 64		
C[C@@](CCn1ccc(-c2ccc3c(c2)C(=O)OC3)cc1=O)(C(=O)NO)S(C)(=O)=O [Example 486]			> 64	> 64
C[C@@](CCn1ccc(-c2ccc(-c3cncnc3)cc2)cc1=O)(C(=O)NO)S(C)(=O)=O [Example 423]			4	1
CC(C)(O)Cc1cccc(-c2ccn(CCC(C)(C(=O)NO)S(C)(=O)=O)c(=O)c2)c1 (centres unmarked) [Example 262, N-hydroxy-4-{4-[3-(2-hydroxy-2-methylpropyl)phenyl]-2-oxopyridin-1(2H)-yl}-2-methyl-2-(methylsulfonyl)butanamide]			> 64	64
C[C@@](CCn1ccc(-c2ccc(CCCO)c(F)c2)cc1=O)(C(=O)NO)S(C)(=O)=O [Example 344, (2R)-4-{4-[3-fluoro-4-(3-hydroxypropyl)phenyl]-2-oxopyridin-1(2H)-yl}-N-hydroxy-2-methyl-2-(methylsulfonyl)butanamide]			2	4
C[C@@](CCn1ccc(-c2ccc(-c3cncs3)cc2)cc1=O)(C(=O)NO)S(C)(=O)=O [Example 406, (2R)-N-hydroxy-2-methyl-2-(methylsulfonyl)-4-{2-oxo-4-[4-(1,3-thiazol-5-yl)phenyl]pyridin-1(2H)-yl}butanamide]			0.5	0.25
CC(C)(C#N)Cc1ccc(-c2ccn(CC[C@](C)(C(=O)NO)S(C)(=O)=O)c(=O)c2)cc1 [Example 343, (2R)-4-{4-[4-(2-cyano-2-methylpropyl)phenyl]-2-oxopyridin-1(2H)-yl}-N-hydroxy-2-methyl-2-(methylsulfonyl)butanamide]			2	8
COc1ccc(-c2ccn(CC[C@](C)(C(=O)NO)S(C)(=O)=O)c(=O)c2)cc1F [Example 317, (2R)-4-[4-(3-fluoro-4-methoxyphenyl)-2-oxopyridin-1(2H)-yl]-N-hydroxy-2-methyl-2-(methylsulfonyl)butanamide]			1	2
CN(C)S(=O)(=O)c1cccc(-c2ccn(CCC(C)(C(=O)NO)S(C)(=O)=O)c(=O)c2)c1 (centres unmarked) [Example 148, 4-[4-{3-[(dimethylamino)sulfonyl]phenyl}-2-oxopyridin-1(2H)-yl]-N-hydroxy-2-methyl-2-(methylsulfonyl)butanamide]	> 64	64		
Cc1cc2cc(-c3ccn(CCC(C)(C(=O)NO)S(C)(=O)=O)c(=O)c3)ccc2[nH]1 (centres unmarked) [Example 256, N-hydroxy-2-methyl-4-[4-(2-methyl-1H-indol-5-yl)-2-oxopyridin-1(2H)-yl]-2-(methylsulfonyl)butanamide]			4	1

Reference: patent publication US8846933B2, “N-link hydroxamic acid derivatives useful as antibacterial agents” (Pfizer Inc., priority 2009, dated 2014)
